According to ChEMBL document CHEMBL1124398, “Full agonists of CCK8 containing a nonhydrolyzable sulfated tyrosine residue” (J Med Chem, 1989):
Starred links: 1 amine or outer side, 2 acyl side, 3 side chain; linkers in the order of their positions; H or OH if unused. Non-standard residues stand in square brackets, D forms with d. Residues, ends and D or L forms follow the SMILES beside them. Phe(4-CH2SO3H) = N[C@@H](Cc1ccc(CS(=O)(=O)O)cc1)C(=O)O; X1 = O=C([C@@H](Cc1ccc(CS(=O)(=O)O)cc1)N[*:1])[*:2]; Nle = CCCC[C@H](N)C(=O)O

What was measured:
Cavia porcellus [1] = organism: Cavia porcellus; assay: The compound was tested for the agonistic activity of amylase secretion by Guinea pig acini; type: functional
Cavia porcellus [2] = organism: Cavia porcellus; assay: The compound was tested for the agonistic activity of contractile activities of Guinea pig ileum; type: functional

Row | EC50 (Cavia porcellus [1]) [nM] | EC50 (Cavia porcellus [2]) [nM] | SMILES
1 | 4.5 | 28 | CCCC[C@H](NC(=O)[C@H](Cc1c[nH]c2ccccc12)NC(=O)CNC(=O)[C@H](CCCC)NC(=O)[C@@H](Cc1ccc(OS(=O)(=O)O)cc1)NC(=O)OC(C)(C)C)C(=O)N[C@@H](CC(=O)O)C(=O)N[C@@H](Cc1ccccc1)C(N)=O
2 | 0.28 |  | CCCC[C@H](NC(=O)[C@H](Cc1ccc(OS(=O)(=O)O)cc1)NC(=O)OC(C)(C)C)C(=O)NCC(=O)N[C@@H](Cc1c[nH]c2ccccc12)C(=O)N[C@@H](CCCC)C(=O)N[C@@H](CC(=O)O)C(=O)N[C@@H](Cc1ccccc1)C(N)=O
3 | 0.33 | 3.8 | CCCC[C@H](NC(=O)[C@H](Cc1ccc(CS(=O)(=O)O)cc1)NC(C)=O)C(=O)NCC(=O)N[C@@H](Cc1c[nH]c2ccccc12)C(=O)N[C@@H](CCCC)C(=O)N[C@@H](CC(=O)O)C(=O)N[C@@H](Cc1ccccc1)C(N)=O (Ac-[Phe(4-CH2SO3H)][Nle]GW[Nle]DF-NH2)
4 | 1.6 | 17 | CCCC[C@H](NC(=O)[C@H](Cc1c[nH]c2ccccc12)NC(=O)CNC(=O)[C@H](CCCC)NC(=O)[C@@H](Cc1ccc(CS(=O)(=O)O)cc1)NC(C)=O)C(=O)N[C@@H](CC(=O)O)C(=O)N[C@@H](Cc1ccccc1)C(N)=O (Ac-[X1][Nle]GW[Nle]DF-NH2)

Row | SMILES | EC50 (Cavia porcellus [1]) [nM] | EC50 (Cavia porcellus [2]) [nM]
5 | CSCC[C@H](NC(=O)[C@H](Cc1ccc(OS(=O)(=O)O)cc1)NC(=O)[C@@H](N)CC(=O)O)C(=O)NCC(=O)N[C@@H](Cc1c[nH]c2ccccc12)C(=O)N[C@@H](CCSC)C(=O)N[C@@H](CC(=O)O)C(=O)N[C@@H](Cc1ccccc1)C(N)=O [SINCALIDE] | 0.1 | 
